Measured values taken from ChEMBL document CHEMBL5252597, “Synthesis and biological evaluation of N-(3-fluorobenzyl)-4-(1-(methyl-d3)-1H-indazol-5-yl)-5-(6-methylpyridin-2-yl)-1H-imidazol-2-amine as a novel, potent ALK5 receptor inhibitor” (Bioorg Med Chem Lett, 2023).

Target: Cytochrome P450 3A4 (Homo sapiens, UniProt P08684)
Experiment: Inhibition of CYP3A4 (unknown origin)
Format: ADME
Details: not given

Chain of Cytochrome P450 3A4 (P08684 whole entry): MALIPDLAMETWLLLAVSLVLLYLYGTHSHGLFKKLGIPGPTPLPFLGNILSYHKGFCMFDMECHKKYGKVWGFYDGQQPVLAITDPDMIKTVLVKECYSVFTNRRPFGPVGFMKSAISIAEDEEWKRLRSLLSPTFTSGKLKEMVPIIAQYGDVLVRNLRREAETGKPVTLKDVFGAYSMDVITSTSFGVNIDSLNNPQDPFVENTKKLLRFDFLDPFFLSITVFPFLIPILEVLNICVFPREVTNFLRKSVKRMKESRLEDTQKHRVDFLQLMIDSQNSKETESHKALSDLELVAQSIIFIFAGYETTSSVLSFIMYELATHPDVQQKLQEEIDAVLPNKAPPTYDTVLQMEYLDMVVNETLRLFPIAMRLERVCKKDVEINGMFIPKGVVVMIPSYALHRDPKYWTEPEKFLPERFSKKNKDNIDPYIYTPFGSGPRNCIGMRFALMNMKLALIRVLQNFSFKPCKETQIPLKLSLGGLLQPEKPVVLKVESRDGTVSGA

Row | IC50 [µM] | SMILES
1 | > 10 | Cc1cccc(-c2[nH]c(NCc3ccc(F)cc3F)nc2-c2ccc3[nH]ncc3c2)n1
2 | > 10 | Cc1cccc(-c2[nH]c(NCc3cccc(F)c3)nc2-c2ccc3c(cnn3C(F)F)c2)n1
3 | > 10 | Cc1cccc(-c2[nH]c(NCc3cccc(F)c3)nc2-c2ccc3c(cnn3C)c2)n1

Target: Cytochrome P450 2D6 (Homo sapiens, UniProt P10635)
Sequence (P10635 whole entry): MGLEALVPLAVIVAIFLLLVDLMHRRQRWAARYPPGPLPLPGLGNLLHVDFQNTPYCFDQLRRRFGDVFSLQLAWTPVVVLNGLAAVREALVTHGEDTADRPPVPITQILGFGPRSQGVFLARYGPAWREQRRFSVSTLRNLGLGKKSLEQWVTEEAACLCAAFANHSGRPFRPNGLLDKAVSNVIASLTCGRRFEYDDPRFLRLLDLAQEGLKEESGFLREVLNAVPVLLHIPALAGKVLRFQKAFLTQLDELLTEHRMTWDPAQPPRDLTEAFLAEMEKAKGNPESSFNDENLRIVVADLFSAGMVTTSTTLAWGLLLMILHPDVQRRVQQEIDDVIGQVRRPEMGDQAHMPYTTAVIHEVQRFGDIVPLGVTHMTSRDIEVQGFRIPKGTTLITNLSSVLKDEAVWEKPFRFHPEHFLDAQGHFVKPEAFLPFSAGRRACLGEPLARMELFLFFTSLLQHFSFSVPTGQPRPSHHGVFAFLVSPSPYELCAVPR
Experiment: Inhibition of CYP2D6 (unknown origin)
Format: ADME
Details: not given

Row | IC50 [µM] | SMILES
4 | 5.8 | Cc1cccc(-c2[nH]c(NCc3ccc(F)cc3F)nc2-c2ccc3[nH]ncc3c2)n1
5 | > 10 | Cc1cccc(-c2[nH]c(NCc3cccc(F)c3)nc2-c2ccc3c(cnn3C(F)F)c2)n1
6 | > 10 | Cc1cccc(-c2[nH]c(NCc3cccc(F)c3)nc2-c2ccc3c(cnn3C)c2)n1

Target: Cytochrome P450 2C19 (Homo sapiens, UniProt P33261)
Sequence (P33261 whole entry): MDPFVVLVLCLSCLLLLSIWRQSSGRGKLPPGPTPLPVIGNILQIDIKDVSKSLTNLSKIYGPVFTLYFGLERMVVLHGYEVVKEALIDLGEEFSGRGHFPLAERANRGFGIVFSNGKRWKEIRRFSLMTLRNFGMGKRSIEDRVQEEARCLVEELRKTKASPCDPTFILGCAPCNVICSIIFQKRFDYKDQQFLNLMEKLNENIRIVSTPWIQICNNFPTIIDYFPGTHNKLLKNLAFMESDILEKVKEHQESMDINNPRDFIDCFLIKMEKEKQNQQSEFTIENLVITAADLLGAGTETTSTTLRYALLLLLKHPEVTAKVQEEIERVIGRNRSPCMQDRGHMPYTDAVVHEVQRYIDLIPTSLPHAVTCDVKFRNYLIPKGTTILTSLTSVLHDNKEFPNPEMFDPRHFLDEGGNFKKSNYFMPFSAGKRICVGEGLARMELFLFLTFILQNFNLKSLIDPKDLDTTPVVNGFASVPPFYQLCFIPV
Experiment: Inhibition of CYP2C19 (unknown origin)
Format: ADME
Details: not given

Row | IC50 [µM] | SMILES
7 | 3.3 | Cc1cccc(-c2[nH]c(NCc3ccc(F)cc3F)nc2-c2ccc3[nH]ncc3c2)n1
8 | > 10 | Cc1cccc(-c2[nH]c(NCc3cccc(F)c3)nc2-c2ccc3c(cnn3C(F)F)c2)n1
9 | > 10 | Cc1cccc(-c2[nH]c(NCc3cccc(F)c3)nc2-c2ccc3c(cnn3C)c2)n1

Target: Cytochrome P450 2C9 (Homo sapiens, UniProt P11712)
Sequence (P11712 whole entry): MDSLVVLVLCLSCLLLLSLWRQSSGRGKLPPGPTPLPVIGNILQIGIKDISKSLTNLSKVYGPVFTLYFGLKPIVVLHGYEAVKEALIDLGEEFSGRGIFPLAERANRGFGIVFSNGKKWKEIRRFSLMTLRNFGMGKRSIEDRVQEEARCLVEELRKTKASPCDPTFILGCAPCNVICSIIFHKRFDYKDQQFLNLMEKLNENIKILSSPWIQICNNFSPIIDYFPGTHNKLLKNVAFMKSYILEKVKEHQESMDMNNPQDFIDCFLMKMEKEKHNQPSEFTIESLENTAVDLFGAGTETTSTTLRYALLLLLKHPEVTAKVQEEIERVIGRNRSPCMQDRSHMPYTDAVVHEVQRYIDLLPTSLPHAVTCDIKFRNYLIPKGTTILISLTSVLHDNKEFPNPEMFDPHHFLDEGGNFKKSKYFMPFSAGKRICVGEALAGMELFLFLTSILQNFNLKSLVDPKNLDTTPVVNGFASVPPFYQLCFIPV
Experiment: Inhibition of CYP2C9 (unknown origin)
Format: ADME
Details: not given

Row | IC50 [µM] | SMILES
10 | 0.5 | Cc1cccc(-c2[nH]c(NCc3ccc(F)cc3F)nc2-c2ccc3[nH]ncc3c2)n1
11 | > 10 | Cc1cccc(-c2[nH]c(NCc3cccc(F)c3)nc2-c2ccc3c(cnn3C(F)F)c2)n1
12 | > 10 | Cc1cccc(-c2[nH]c(NCc3cccc(F)c3)nc2-c2ccc3c(cnn3C)c2)n1

Target: T1, Cytochrome P450 1A2 (Homo sapiens, UniProt P05177)
T1 sequence (P05177 whole entry): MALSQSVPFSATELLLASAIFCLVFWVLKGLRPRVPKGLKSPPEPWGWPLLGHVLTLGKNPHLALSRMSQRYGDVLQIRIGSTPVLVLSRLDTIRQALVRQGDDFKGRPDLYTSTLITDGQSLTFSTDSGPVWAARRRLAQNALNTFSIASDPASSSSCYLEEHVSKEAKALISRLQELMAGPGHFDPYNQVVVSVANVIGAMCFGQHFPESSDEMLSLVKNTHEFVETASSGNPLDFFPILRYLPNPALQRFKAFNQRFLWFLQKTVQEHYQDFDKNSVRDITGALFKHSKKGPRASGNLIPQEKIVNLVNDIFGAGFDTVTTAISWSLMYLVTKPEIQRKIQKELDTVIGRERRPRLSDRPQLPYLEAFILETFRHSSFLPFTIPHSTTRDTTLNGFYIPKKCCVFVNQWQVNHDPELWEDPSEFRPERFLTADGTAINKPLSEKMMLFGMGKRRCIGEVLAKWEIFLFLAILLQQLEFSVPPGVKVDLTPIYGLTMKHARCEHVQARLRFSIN
Experiment: Inhibition of CYP1A2 (unknown origin)
Format: ADME
Details: not given

Row | IC50 [µM] | SMILES
13 | 8.7 | Cc1cccc(-c2[nH]c(NCc3ccc(F)cc3F)nc2-c2ccc3[nH]ncc3c2)n1
14 | 8.5 | Cc1cccc(-c2[nH]c(NCc3cccc(F)c3)nc2-c2ccc3c(cnn3C(F)F)c2)n1
15 | > 10 | Cc1cccc(-c2[nH]c(NCc3cccc(F)c3)nc2-c2ccc3c(cnn3C)c2)n1

Target: T2, Activin receptor type-1 (Homo sapiens, UniProt Q04771)
T2 sequence (Q04771 whole entry): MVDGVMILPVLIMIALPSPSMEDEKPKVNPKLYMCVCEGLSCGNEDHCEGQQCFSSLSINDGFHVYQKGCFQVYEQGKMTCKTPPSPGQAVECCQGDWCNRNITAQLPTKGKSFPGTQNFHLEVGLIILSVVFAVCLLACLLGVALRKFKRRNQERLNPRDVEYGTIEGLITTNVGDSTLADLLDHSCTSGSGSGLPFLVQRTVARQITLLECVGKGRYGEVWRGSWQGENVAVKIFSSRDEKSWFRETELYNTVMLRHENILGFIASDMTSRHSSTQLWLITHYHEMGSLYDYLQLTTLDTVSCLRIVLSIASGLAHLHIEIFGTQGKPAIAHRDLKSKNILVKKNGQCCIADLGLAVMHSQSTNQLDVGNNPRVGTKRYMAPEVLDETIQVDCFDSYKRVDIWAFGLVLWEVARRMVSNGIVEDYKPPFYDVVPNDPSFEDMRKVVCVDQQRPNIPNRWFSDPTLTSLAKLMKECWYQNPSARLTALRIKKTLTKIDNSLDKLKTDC
Experiment: Inhibition of human ALK2 by […] assay
Details: not given

Row | IC50 [µM] | SMILES
16 | > 10 | Cc1cccc(-c2[nH]c(NCc3cccc(F)c3)nc2-c2ccc3c(cnn3C(F)F)c2)n1
17 | > 10 | Cc1cccc(-c2[nH]c(NCc3cccc(F)c3)nc2-c2ccc3c(cnn3C)c2)n1

Target: T3, Cytochrome P450 1A2 (Mus musculus, UniProt P00186)
T3 sequence (P00186 whole entry): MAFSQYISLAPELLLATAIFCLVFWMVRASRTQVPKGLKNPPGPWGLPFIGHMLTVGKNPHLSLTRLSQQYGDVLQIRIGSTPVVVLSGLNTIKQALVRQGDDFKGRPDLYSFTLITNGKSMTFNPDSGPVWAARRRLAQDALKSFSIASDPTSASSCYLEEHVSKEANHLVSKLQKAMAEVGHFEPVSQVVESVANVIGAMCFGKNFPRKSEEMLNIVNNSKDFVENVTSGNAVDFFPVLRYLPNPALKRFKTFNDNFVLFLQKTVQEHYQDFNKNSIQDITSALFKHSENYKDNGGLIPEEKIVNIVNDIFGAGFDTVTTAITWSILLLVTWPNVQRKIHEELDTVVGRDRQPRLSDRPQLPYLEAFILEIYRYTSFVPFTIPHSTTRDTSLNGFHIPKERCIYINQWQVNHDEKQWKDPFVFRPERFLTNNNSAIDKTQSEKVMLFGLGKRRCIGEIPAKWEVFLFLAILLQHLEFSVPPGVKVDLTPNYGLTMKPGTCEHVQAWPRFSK
Experiment: Inhibition of mouse CYP1A2
Format: ADME
Details: not given

Row | IC50 [µM] | SMILES
18 | 71.5 | Cc1cccc(-c2[nH]c(NCc3cccc(F)c3)nc2-c2ccc3c(cnn3C)c2)n1

System: not listed separately
Experiment: Inhibition of mouse CYP2C8
Format: ADME
Details: not given

Row | IC50 [µM] | SMILES
19 | 34.1 | Cc1cccc(-c2[nH]c(NCc3cccc(F)c3)nc2-c2ccc3c(cnn3C)c2)n1

System: not listed separately
Experiment: Inhibition of mouse CYP2C9
Format: ADME
Details: not given

Row | IC50 [µM] | SMILES
20 | 27.8 | Cc1cccc(-c2[nH]c(NCc3cccc(F)c3)nc2-c2ccc3c(cnn3C)c2)n1

System: not listed separately
Experiment: Inhibition of mouse CYP2D6
Format: ADME
Details: not given

Row | IC50 [µM] | SMILES
21 | 26.2 | Cc1cccc(-c2[nH]c(NCc3cccc(F)c3)nc2-c2ccc3c(cnn3C)c2)n1

System: not listed separately
Experiment: Inhibition of mouse CYP3A4
Format: ADME
Details: not given

Row | IC50 [µM] | SMILES
22 | 20.5 | Cc1cccc(-c2[nH]c(NCc3cccc(F)c3)nc2-c2ccc3c(cnn3C)c2)n1

System: not listed separately
Experiment: Stability of the compound in human plasma assessed as half life
Format: ADME, cell-free
Details: not given

Row | half-life [h] | SMILES
23 | > 2 | Cc1cccc(-c2[nH]c(NCc3cccc(F)c3)nc2-c2ccc3c(cnn3C)c2)n1

System: not listed separately
Experiment: Stability of the compound in mouse plasma assessed as half life
Format: ADME, cell-free
Details: not given

Row | half-life [h] | SMILES
24 | > 2 | Cc1cccc(-c2[nH]c(NCc3cccc(F)c3)nc2-c2ccc3c(cnn3C)c2)n1

System: not listed separately
Experiment: Metabolic stability in human liver microsomes assessed as intrinsic clearance
Format: ADME, Microsome
Details: read-out: CLH

Row | microsomal CLint [µL/min/mg] | SMILES
25 | 29.8 | Cc1cccc(-c2[nH]c(NCc3cccc(F)c3)nc2-c2ccc3c(cnn3C)c2)n1

System: not listed separately
Experiment: Cmax in BALB/c mouse at 10 mg/kg, po
Format: ADME, organism-based
Parameters: dose 10 mg/kg, route po
Details: in vivo

Row | Cmax [ng/mL] | SMILES
26 | 1530 | Cc1cccc(-c2[nH]c(NCc3cccc(F)c3)nc2-c2ccc3c(cnn3C)c2)n1

System: not listed separately
Experiment: Total AUC in BALB/c mouse at 2 mg/kg, iv
Format: ADME, organism-based
Parameters: dose 2 mg/kg, route iv
Details: in vivo

Row | AUC [ng·h/mL] | SMILES
27 | 870 | Cc1cccc(-c2[nH]c(NCc3cccc(F)c3)nc2-c2ccc3c(cnn3C)c2)n1

System: not listed separately
Experiment: Total AUC in BALB/c mouse at 10 mg/kg, po
Format: ADME, organism-based
Parameters: dose 10 mg/kg, route po
Details: in vivo

Row | AUC [ng·h/mL] | SMILES
28 | 3030 | Cc1cccc(-c2[nH]c(NCc3cccc(F)c3)nc2-c2ccc3c(cnn3C)c2)n1

System: not listed separately
Experiment: Tmax in BALB/c mouse at 10 mg/kg, po
Format: ADME, organism-based
Details: in vivo

Row | Tmax [h] | SMILES
29 | 0.4 | Cc1cccc(-c2[nH]c(NCc3cccc(F)c3)nc2-c2ccc3c(cnn3C)c2)n1

System: not listed separately
Experiment: Half life in BALB/c mouse at 2 mg/kg, iv
Format: ADME, organism-based
Details: in vivo

Row | half-life [h] | SMILES
30 | 1.6 | Cc1cccc(-c2[nH]c(NCc3cccc(F)c3)nc2-c2ccc3c(cnn3C)c2)n1

System: not listed separately
Experiment: Half life in BALB/c mouse at 10 mg/kg, po
Format: ADME, organism-based
Details: in vivo

Row | half-life [h] | SMILES
31 | 1.6 | Cc1cccc(-c2[nH]c(NCc3cccc(F)c3)nc2-c2ccc3c(cnn3C)c2)n1

System: not listed separately
Experiment: Clearance in BALB/c mouse at 2 mg/kg, iv
Format: ADME, organism-based
Details: in vivo

Row | clearance [mL/min/kg] | SMILES
32 | 38.4 | Cc1cccc(-c2[nH]c(NCc3cccc(F)c3)nc2-c2ccc3c(cnn3C)c2)n1

System: not listed separately
Experiment: Volume of distribution in BALB/c mouse at 2 mg/kg, iv
Format: ADME, organism-based
Details: in vivo

Row | Vd [L/kg] | SMILES
33 | 5.1 | Cc1cccc(-c2[nH]c(NCc3cccc(F)c3)nc2-c2ccc3c(cnn3C)c2)n1

System: not listed separately
Experiment: Oral bioavailability in BALB/c mouse at 10 mg/kg
Format: ADME, organism-based
Details: in vivo

Row | bioavailability [%] | SMILES
34 | 69.6 | Cc1cccc(-c2[nH]c(NCc3cccc(F)c3)nc2-c2ccc3c(cnn3C)c2)n1
